Values after ≈ are worked out from the molar mass of the structure shown.
Key:
[1] = Hygroscopicity experiment (DVS); type: physicochemical; settings: for hygroscopicity (in words): DVS; for Hygroscopicity (25° C./80% RH): DVS vapour sorption weight gain at 80% RH
Protocol: The hygroscopicity of crystal forms I, II and III of the free base of Example 40 under different relative humidity conditions was investigated, so as to provide a basis for screening of the crystal form and salt of the compound, production and storage.
10 to 15 mg of the free base of Example 40 was placed in the sample chamber of DVS. DVS was carried out, and the vapour sorption weight gain percentage of the compound at 80% RH was recorded at the same time.

[2] = Competitive experiment of different crystal forms of the free base; type: physicochemical; settings: 40° C.
Protocol: The stability among crystal forms I, II and III of the free base of Example 40 was investigated, so as to select the stable crystal form.
Multiple portions of about 20 mg of crystal forms I, II and III of the free base of Example 40 were accurately weighed, and mixed in pairs in equal amounts. Methyl tert-butyl ether and n-heptane were added respectively, and the resulting mixture was stirred at 40° C. for 7 days. The mixture was centrifuged at high speed, the supernatant was removed, and the resulting solid precipitate was vacuum dried in an oven at 40° C. and characterized by XRPD.

[3] = Solubility experiment (thermodynamic solubility at 37° C.); type: physicochemical; settings: 24 hours
Protocol: The solubility of the free base and salt of the compound in water, Fasted State Simulated Gastric Fluid (FaSGF), Fasted State Simulated Intestinal Fluid (FaSSIF) and Fed State Simulated Intestinal Fluid (FeSSIF) was compared, so as to provide a basis for evaluating the druggability of the crystal form and salt.
About 2 to 3 mg of crystal forms I, II and III of the free base of Example 40 were weighed, suspended in 1 mL of Fasted State Simulated Gastric Fluid (FaSSGF), Fasted State Simulated Intestinal Fluid (FaSSIF), Fed State Simulated Intestinal Fluid (FeSSIF) and pure water respectively, and shaked for 24 hours. Thermodynamic solubility of the compound at 37° C. was determined using HPLC by external standard method.

[4] = target: T1, human GABAA receptor α1, β2 and γ2 subunit (HEK293T cell line) (Homo sapiens, UniProt P14867+P47870); experiment: Positive regulatory effect on GABAA receptor, manual patch clamp; type: cell-based; settings: whole-cell current, 1 μM GABA
T1 construct: expressed in transfected cells
T1 sequence (P14867 28-456): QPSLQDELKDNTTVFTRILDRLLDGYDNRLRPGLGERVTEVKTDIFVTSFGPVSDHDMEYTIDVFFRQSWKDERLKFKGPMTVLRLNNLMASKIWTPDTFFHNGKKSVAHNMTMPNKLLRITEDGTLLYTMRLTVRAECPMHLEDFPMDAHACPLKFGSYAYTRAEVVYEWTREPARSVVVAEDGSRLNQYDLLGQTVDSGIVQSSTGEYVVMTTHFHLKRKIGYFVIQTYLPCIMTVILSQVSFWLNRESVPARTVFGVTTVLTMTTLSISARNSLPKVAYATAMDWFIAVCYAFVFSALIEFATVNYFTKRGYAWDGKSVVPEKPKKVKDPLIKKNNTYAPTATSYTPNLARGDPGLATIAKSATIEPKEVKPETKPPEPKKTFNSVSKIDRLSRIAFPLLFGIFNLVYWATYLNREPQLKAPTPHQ
T1 sequence (P47870 25-512 limits assumed): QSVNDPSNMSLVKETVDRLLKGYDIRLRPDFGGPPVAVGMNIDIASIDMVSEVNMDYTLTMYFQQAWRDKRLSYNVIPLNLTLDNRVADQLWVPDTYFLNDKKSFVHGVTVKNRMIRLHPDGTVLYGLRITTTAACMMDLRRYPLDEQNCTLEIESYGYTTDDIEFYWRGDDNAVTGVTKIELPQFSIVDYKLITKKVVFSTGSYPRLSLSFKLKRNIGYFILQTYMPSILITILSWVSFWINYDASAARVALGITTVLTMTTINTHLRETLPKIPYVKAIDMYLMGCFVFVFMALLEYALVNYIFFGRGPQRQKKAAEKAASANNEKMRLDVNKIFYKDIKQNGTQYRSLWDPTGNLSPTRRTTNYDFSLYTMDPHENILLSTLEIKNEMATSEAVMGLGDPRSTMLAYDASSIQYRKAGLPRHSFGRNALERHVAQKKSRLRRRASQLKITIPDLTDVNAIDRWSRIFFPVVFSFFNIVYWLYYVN
T1 sequence (P18507 40-475 partner): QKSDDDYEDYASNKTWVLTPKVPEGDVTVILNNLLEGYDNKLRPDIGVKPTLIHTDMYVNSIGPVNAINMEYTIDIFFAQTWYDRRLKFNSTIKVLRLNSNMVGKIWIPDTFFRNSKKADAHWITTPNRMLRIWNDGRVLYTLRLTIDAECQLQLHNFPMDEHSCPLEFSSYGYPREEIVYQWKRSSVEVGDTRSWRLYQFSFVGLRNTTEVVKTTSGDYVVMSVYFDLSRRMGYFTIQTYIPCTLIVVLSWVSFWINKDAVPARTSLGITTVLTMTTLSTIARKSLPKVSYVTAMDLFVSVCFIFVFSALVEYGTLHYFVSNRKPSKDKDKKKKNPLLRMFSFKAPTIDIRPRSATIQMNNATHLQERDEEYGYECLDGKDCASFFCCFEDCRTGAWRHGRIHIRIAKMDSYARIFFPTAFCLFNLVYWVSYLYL
Protocol: The objective of this test example is to determine the positive regulatory effect of the compound on GABAA receptor by the electrophysiological manual patch clamp method.
Manual patch clamp system HEKA EPC10 USB signal amplifier and digital conversion system (purchased from HEKA Electronics, Germany), centrifuge (Eppendorf, etc.), carbon dioxide incubator (purchased from Thermo, etc.), biological safety cabinet (Thermo, etc.), pipette (purchased from Eppendorf, etc.).
The cells were grown in a culture dish with DMEM medium (purchased from Invitrogen), and cultured in an incubator at 37° C. and 5% CO2. Before the electrophysiological experiment, the cells were transferred to a round glass slide placed in the culture dish, and grown in the same culture medium and under the same culture condition as above. The density of cells on each round glass slide should meet the requirement that most cells were independent and individual.
Each test compound was diluted in gradient with DMSO to obtain a stock solution, which was then diluted with extracellular fluid by 1,000-fold to obtain the final test concentration. The final concentration of DMSO in the compound solution with each concentration was 0.1%. The experiment used the manual patch clamp system HEKA EPC10 USB signal amplifier and digital conversion system for whole cell current recording. The round glass slide with HEK293T GABAA cells grown on the surface was taken out of the culture dish, and placed in the electrophysiological recording tank under the inverted microscope. The recording tank was continuously perfused with extracellular fluid. During the experiment, the whole-cell current recording technology was used to record the chloride current of the GABAA channel. 1 μM GABA was used to activate the chloride current of the GABAA channel of each cell as an initial control. 1 μM GABA acted on the cell through the drug perfusion system to induce the chloride current of the GABAA channel, the action time was about 3 to 5 seconds, and the current value was used as the initial control value. The test concentration of compound was perfused and incubated for 2 to 5 minutes. […] GABA solution (mixed with the test concentration of compound) was given to the cells to observe the enhancement effect of the test compound on the current induced by 1 μM GABA. When the cell state was stable, the test compound acted on the same cell from low to high concentration to record the enhancement effect of the induced current.
The experimental data was analyzed by HEKA Patchmaster, Microsoft Excel and the data analysis software provided by Graphpad Prism.

ICR mice = experiment: Forced swimming model in mice; type: in vivo; settings: for Mean (immobility, %): floating time/240 s; for Mean (immobility, s): latter four minutes of 6 min swim
Summary of the method: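 Male ICR mice (25-35 g), 12 per group, dosed intragastrically at brain Tmax with 10 mg/kg or 5 mg/kg p.o. in 0.5% CMC-Na + 1% Tween 80. Forced swim 0.5-1 h post-dose for 6 min in 25-26° C. water, 18 cm deep. Immobility over last 4 min, given as floating time percentage of 240 s.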

CD-1 mice = experiment: PTZ-induced epilepsy model in mice; type: in vivo; settings: 3 mpk p.o., PTZ 120 mg/kg s.c., 30 min observation
Protocol: The PTZ-induced epilepsy model in CD-1 mice was established, and the antiepileptic effect of the compounds of Example 2, Example 40, Example 41 and Example 52 was evaluated using this model.
50 male CD-1 mice were purchased from Beijing Vital River Laboratory Animal Technology Co. Ltd. The test animals were adapted at the animal room in the third building of Shanghai ChemPartner Co., Ltd for 7 days before the experiment. The average body weight of the animals on the test day was 32.2±0.2 grams. Feeding environment: 5 animals/cage, room temperature 23±2° C., 12/12 hours of light and dark cycle, free access to food and water.
The mice were randomly grouped for the experiment on the test day.
Compounds of Example 2, Example 40, Example 41 and Example 52 (prepared by the applicant). The test compounds were stored in a refrigerator at 4° C.
4.2.3 Test Equipments • 1 ml sterile disposable syringe with needle (purchased from Zhejiang Kangdelai Medical Devices Co., Ltd.) • Pipette: Eppendorf Research Plus (100-1000 μL) • Vortex mixer: Kylin-Bell Vortex 5 • Ultrasonic instrument: JL-360 ultrasonic cleaner • Balance: METTLER TOLEDO XS204 precision balance • Balance: METTLER TOLEDO XS6002S electronic balance • Plexiglass box: 25 cm length*15 cm width*15 cm height with one opaque side wall, custom made by Suzhou Fengshi Laboratory Animal Equipment Co., Ltd • 3-channel timer: Oregon/Model NO. WB-388. 4.2.4 Test Animal Grouping • 1) Vehicle/PTZ: 0.5% CMC-Na+1% Tween-80 (10 ml/kg, p.o.), administered 0.5 hr before the PTZ administration; PTZ ([…], s.c.), administered before the experiment; • 2) 3 mg/kg of the compounds of Examples/PTZ: the compounds of Example 2, Example 40, Example 41 and Example 52 (3 mg/kg, 10 ml/kg, p.o.), administered 0.5 hr before the PTZ administration; PTZ ([…], s.c.), administered before the experiment. 4.3 Experimental Procedures 4.3.1 Solvent Formulation • 1) 0.5% CMC-Na+1% Tween-80 (administration volume: 10 mL/kg):
1 g of sodium carboxymethyl cellulose was precisely weighed and added to a 250 mL solvent bottle, then 150 mL of double-distilled water was added. The mixture was stirred at room temperature for 4 hours with a magnetic stirrer to obtain a uniform and clear solution. 2 mL of Tween-80 was slowly added, and the mixture was stirred at room temperature for 3 hours to obtain a uniform and clear solution. The solution was slowly transferred to a 200 mL volumetric flask, and double distilled water was added to the constant volume of 200 mL. The solution was transferred to a 250 mL solvent bottle, and stirred for 1 hour with a magnetic stirrer to obtain a uniform and clear solution. • 2) 30% hydroxypropyl-p-cyclodextrin:
248 mg of PTZ was precisely weighed and added to a 40 mL brown flask, then 20.667 mL of physiological saline was added. The mixture was mixed by vortex for 2 minutes, and treated by ultrasound at room temperature for 2 minutes to obtain a uniform and clear solution (concentration: 12 mg/mL). • 2) 0.3 mg/mL of the compounds of Example 5 or Example 23 (dose: 3 mg/kg; administration volume: 10 mL/kg): […]
4.4 Adaptation to the Environment
The mice were randomly grouped, marked and weighed; 10 mice per group. The test compound was administered orally at an administration volume of 10 mL/kg 30-60 minutes before the PTZ administration.
PTZ (120 mg/kg) was administrated subcutaneously before the experiment observation, and this time point was recorded as the observation start point; after the administration of PTZ, the animal was immediately placed in the observation box and observed for 30 minutes, and the followings were recorded: a) the incubation period of the first clonic seizure, b) the incubation period of the first generalized tonic seizure, c) the number of clonic seizures, d) the number of generalized tonic seizures, e) the time when the animal died.
All measurement data were expressed as Mean±SEM, and analysed with Prism 6.0 statistical software.

SMILES | hygroscopicity (in words) [1] | Hygroscopicity (25° C./80% RH) [1] [%] | solubility in n-heptane (in words) [2] | Solubility ([3]; FaSSGF) [µg/mL] | Solubility ([3]; FaSSIF) [µg/mL] | Solubility ([3]; FeSSIF) [µg/mL] | Solubility ([3]; Water) [µg/mL] | EC50 [4] [µM] | Mean (immobility, %) (ICR mice; dose 10 mpk p.o.) [%] | Mean (immobility, s) (ICR mice; dose 10 mpk p.o.) [s] | immobility time during the latter four minutes compared with that of the model group (ICR mice; forced swimming, ICR mice) | Incubation period of the clonic seizure (sec) Mean ± SEM (CD-1 mice) [s] | Incubation period of the generalized tonic seizure (sec) Mean (CD-1 mice) [s] | Mortality rate (%) (CD-1 mice) | Number of clonic seizures Mean (CD-1 mice) | Number of generalized tonic seizures Mean (CD-1 mice) | Time when the animal died (sec) Mean (CD-1 mice) [s] | Mean (immobility, %) (ICR mice; dose 5 mpk p.o.) [%] | Mean (immobility, s) (ICR mice; dose 5 mpk p.o.) [s]
C[C@@H]1C[C@H](C(=O)Cn2ccc(C#N)n2)[C@@]2(C)CC[C@H]3[C@@H](CC[C@@H]4C[C@](C)(O)CC[C@@H]43)[C@H]12 [Crystal form II, 1-(2-((3R,5R,8R,9R,10S,13S,14S,15R,17S)-3-Hydroxy-3,13,15-trimethylhexadecahydro-1H-cyclopenta[a]phenanthren-17-yl)-2-oxoethyl)-1H-pyrazole-3-carbonitrile] | no hygroscopicity | 0.03 | almost insoluble | <1 | 3.705 (≈ 8.75 µM) | 18.495 (≈ 43.7 µM) | <1 | – | – | – | – | – | – | – | – | – | – | – | –
C[C@@H]1C[C@H](C(=O)Cn2ccc(C#N)n2)[C@@]2(C)CC[C@H]3[C@@H](CC[C@@H]4C[C@](C)(O)CC[C@@H]43)[C@H]12 [Crystal form III, 1-(2-((3R,5R,8R,9R,10S,13S,14S,15R,17S)-3-Hydroxy-3,13,15-trimethylhexadecahydro-1H-cyclopenta[a]phenanthren-17-yl)-2-oxoethyl)-1H-pyrazole-3-carbonitrile] | no hygroscopicity | 0.10 | almost insoluble | <1 | 4.914 (≈ 11.6 µM) | 28.166 (≈ 66.5 µM) | <1 | – | – | – | – | – | – | – | – | – | – | – | –
C[C@@H]1C[C@H](C(=O)Cn2nccn2)[C@@]2(C)CC[C@H]3[C@@H](CC[C@@H]4C[C@](C)(O)CC[C@@H]43)[C@H]12 [Example 41, 1-((3R,5R,8R,9R,10S,13S,14S,15R,17S)-3-Hydroxy-3,13,15-trimethylhexadecahydro-1H-cyclopenta[a]phenanthren-17-yl)-2-(2H-1,2,3-triazol-2-yl)ethan-1-one] | – | – | – | – | – | – | – | 0.13 | 35.75 | 85.8 | very significantly different | 841.4 ± 179.8 | 1497.4 ± 124.3 | 40 | 1.9 ± 0.4 | 0.5 ± 0.2 | 1573.1 ± 117.9 | – | –
Cc1nnn(CC(=O)[C@H]2C[C@@H](C3CC3)[C@H]3[C@@H]4CC[C@@H]5C[C@](C)(O)CC[C@@H]5[C@H]4CC[C@@]32C)n1 [Example 52, 1-((3R,5R,8R,9R,10S,13S,14S,15S,17S)-15-Cyclopropyl-3-hydroxy-3,13-dimethylhexadecahydro-1H-cyclopenta[a]phenanthren-17-yl)-2-(5-methyl-2H-tetrazol-2-yl)ethan-1-one] | – | – | – | – | – | – | – | 0.15 | – | – | – | 635.4 ± 149.9 | 1506.8 ± 149.8 | 30 | 1.8 ± 0.3 | 0.3 ± 0.2 | 1618.1 ± 121.3 | 38.00 | 91.21

Source: patent publication US12590118B2, “Salt and crystal form of steroid derivative regulator” (Shanghai Hansoh Biomedical Co., Ltd., priority 2019, dated 2026)
